Columns and labels:
[1] = molecular target: T1, HCV polymerase (NS5B570n-Con1) (Hepatitis C virus genotype 1b, UniProt Q9WMX2); assay: HCV NS5B RNA polymerase activity assay (incorporation of radiolabeled UTP); type: biochemical, HCV Con1 strain
T1 construct: contains a 21 amino acid deletion at the C-terminus relative to the full-length HCV polymerase; 6-histidine (N); made in house; host or cells: E. coli strain BL21(DE) pLysS, plasmid pET 17b
Protocol: The enzymatic activity of HCV polymerase (NS5B570n-Con1) was measured as the incorporation of radiolabeled nucleotide monophosphates into acid insoluble RNA products. Unincorporated radiolabeled substrate was removed by filtration and scintillant was added to the washed and dried filter plate containing radiolabeled RNA product. The amount of RNA product generated by NS5B570-Con1 at the end of the reaction was directly proportional to the amount of light emitted by the scintillant.
The N-terminal 6-histidine tagged HCV polymerase, derived from HCV Con1 strain, genotype 1b (NS5B570n-Con1) contains a 21 amino acid deletion at the C-terminus relative to the full-length HCV polymerase and was purified from E. coli strain BL21(DE) pLysS. The construct, containing the coding sequence of HCV NS5B Con1 (GenBank accession number AJ242654) was inserted into the plasmid construct pET 17b, downstream of a T7 promoter expression cassette and transformed into E. coli. A single colony was grown overnight as a starter culture and later used inoculate 10 L of LB media supplemented with 100 μg/mL ampicillin at 37° C. Protein expression was induced by the addition of 0.25 mM isopropyl-β-D-thiogalactopyranoside (IPTG) when optical density at […] of the culture was between 0.6 and 0.8 and cells were harvested after 16 to 18 h at 30° C. NS5B570n-Con1 was purified to homogeneity using a three-step protocol including subsequent column chromatography on Ni-NTA, SP-Sepharose HP and Superdex 75 resins.
Each 50 μL enzymatic reaction contained 20 nM RNA template derived from the complementary sequence of the Internal Ribosome Entry Site (cIRES), 20 nM NS5B570n-Con1 enzyme, 0.5 μCi of tritiated UTP (Perkin Elmer catalog no. TRK-412; specific activity: 30 to 60 Ci/mmol; stock solution concentration from 7.5×10^−5 M to 20.6×10^−6 M), 1 μM each ATP, CTP, and GTP, 40 mM Tris-HCl pH 8.0, 40 mM NaCl, 4 mM DTT (dithiothreitol), 4 mM MgC12, and 5 μL of compound serial diluted in DMSO. Reaction mixtures were assembled in 96-well filter plates (cat #MADVNOB, Millipore Co.) and incubated for 2 h at 30° C. Reactions were stopped by addition of 10% final (v/v) trichloroacetic acid and incubated for 40 min at 4° C. Reactions were filtered, washed with 8 reaction volumes of 10% (v/v) trichloroacetic acetic acid, 4 reaction volumes of 70% (v/v) ethanol, air dried, and 25 μL of scintillant (Microscint 20, Perkin-Elmer) was added to each reaction well.
The amount of light emitted from the scintillant was converted to counts per minute (CPM) on a Topcount® plate reader (Perkin-Elmer, Energy Range: Low, Efficiency Mode Normal, Count Time: 1 min, Background Subtract: none, Cross talk reduction: Off).
Data was analyzed in Excel® (Microsoft) and ActivityBase® (Idbs®). The reaction in the absence of enzyme was used to determine the background signal, which was subtracted from the enzymatic reactions. Positive control reactions were performed in the absence of compound, from which the background corrected activity was set as 100% polymerase activity. All data was expressed as a percentage of the positive control. The compound concentration at which the enzyme-catalyzed rate of RNA synthesis was reduced by 50% (IC50) was calculated by fitting equation (i) to the data where“Y” […]

[2] = tested on: HCV replicon cells (2209-23), genotype 1b replicon in Huh7 cells; assay: HCV replicon assay (Renilla luciferase reporter); type: cell-based, HCV genotype 1b; settings: Hepatitis C virus, Huh-7, 72 h; 2209-23 cells, three days incubation
in vitro = settings: human
HCV = settings: cited from earlier work

| Compound | melting point | IC50 [1] | other results |
| --- | --- | --- | --- |
| CC(C)(C)c1nc(-c2ccc(O)[nH]c2=O)c2ccc(N3CC[C@H](CNS(C)(=O)=O)C3)cc2n1 [Compound I-2] | 205.8 to 207.9 °C | 3.5 nM |  |
| CC(C)(C)c1nc(-n2ccc(=O)[nH]c2=O)c2ccc(-c3ccc(NS(C)(=O)=O)cc3)cc2n1 [Compound I-3, N-{4-[2-tert-Butyl-4-(2,4-dioxo-3,4-dihydro-2H-pyrimidin-1-yl)-quinazolin-7-yl]-phenyl}-methanesulfonamide] | 186 to 190 °C | < 0.1 nM | IC50 [2]: 17 nM; CC50 at 3 days (in vitro): 44000 nM |
| CC(C)(C)c1nc(-c2ccc(O)[nH]c2=O)c2ccc(-c3ccc(NS(C)(=O)=O)cc3)cc2n1 [Compound I-4, N-{4-[2-tert-Butyl-4-(6-hydroxy-2-oxo-1,2-dihydro-pyridin-3-yl)-quinazolin-7-yl]-phenyl}-methanesulfonamide] |  | 2.4 nM |  |
| CC(C)(C)c1nc(-n2ccc(=O)[nH]c2=O)c2ncc(-c3ccc(NS(C)(=O)=O)cc3)cc2n1 [Compound I-5, N-{4-[2-tert-Butyl-4-(2,4-dioxo-3,4-dihydro-2H-pyrimidin-1-yl)-pyrido[3,2-d]pyrimidin-7-yl]-phenyl}-methanesulfonamide] |  | 5.5 nM |  |
| Cc1ccc(-c2nc(C(C)(C)C)nc3cc(-c4ccc(NS(C)(=O)=O)cc4)cnc23)c(=O)[nH]1 [Compound I-6] |  | 9.7 nM |  |
| NC(=O)c1ncn([C@@H]2O[C@H](CO)[C@@H](O)[C@H]2O)n1 [ribavirin, 1-((2R,3R,4S,5R)-3,4-Dihydroxy-5-hydroxymethyl-tetrahydro-furan-2-yl)-1H-[1,2,4]triazole-3-carboxylic acid amide] |  |  | patients with serum amino transferase levels reduced to normal (HCV; monotherapy): 40%; effect on serum levels of HCV-RNA (HCV; sole treatment / monotherapy): does not lower serum levels of HCV-RNA |
